# Data as given in US9850278B2, “Synthetic anti-inflammatory peptides and use thereof” (CARMEL-HAIFA UNIVERSITY ECONOMIC CORP., priority 2013, dated 2017).
# Entries after “also recorded” stand apart in the source; their conditions may differ.
# Legend:
# TGF-β = TGF-β secretion by U937-derived human macrophages, supernatant ELISA; assay type: cell-based; conditions: for TGF-β secretion, effect of peptide (Example 2, FIG. 4B): peptide 1-1000 μM 24 hrs, then LPS 100 ng/ml 24 hours, FKE effect at low concentrations (1-10 μM), others compared with FKE
# Experimental: (§1) U937 monocytic cells were cultured in 1 ml culture media (RPMI 1640, Biological industries, Beit Haemek), supplemented with 10% Fetal Calf Serum (FCS), 1% pen strep (PS) and 0.04% β-mercaptoethanol) and seeded in 24 well plates (250,000 cells/well). The monocytes underwent differentiation to macrophages with PMA (50 ng/ml) for 48 Hours in a humidified atmosphere (7.5% CO2 at 37° C.). Then the cells were washed using preheated (37° C.) culture medium and synthetic peptides (FKE, SEQ ID NO: 1, or FKD, SEQ ID NO: 3, 0.1-1000 μM) were added to the cells for 24-48 hours. After 24 hours, untreated or peptide-treated cells were activated with lipopolysaccharide (LPS-stimulated, 100 ng/ml for 24 hours). After the indicated incubations, cell free supernatants were collected and their content of IL-10, TGF-β and IL-6 was determined by standard ELISA.
# (§2) The results are presented in FIGS. 1-3 and summarized in Table 1 below (effect considered significant if ±30% of control):
# (§3) U937 monocytic cells were cultured and underwent differentiation to macrophages as described above in Example 1. The cells were then incubated for 24 hrs in the presence of synthetic peptides, at 1-1000 μM: FKE (SEQ ID NO: 1), FKECHLA (SEQ ID NO: 21), FKECH (SEQ ID NO: 4), EKF or YKE (SEQ ID NO: 2). Control cells were left untreated. After 24 hours, untreated or peptide-treated cells were activated with lipopolysaccharide (LPS, 100 ng/ml for 24 hours). Following activation with LPS, cell free supernatants were collected and their content of IL-10, TGF-β, IL-6 and TNF-α was determined by standard ELISA.
# IL-6 = IL-6 secretion by U937-derived human macrophages, supernatant ELISA; assay type: cell-based; conditions: for IL-6 secretion, effect of peptide (Example 2, FIG. 4C): peptide 1-1000 μM 24 hrs, then LPS 100 ng/ml 24 hours, FKE effect at low concentrations (1-10 μM), others compared with FKE
# Experimental: as §1, §2, §3
# IL-10 = IL-10 secretion by U937-derived human macrophages, supernatant ELISA; assay type: cell-based; conditions: for IL-10 secretion, effect of peptide: significant if ±30% of control; for IL-10 secretion, effect of peptide (Example 2, FIG. 4A): peptide 1-1000 μM 24 hrs, then LPS 100 ng/ml 24 hours, FKE effect at low concentrations (1-10 μM), others compared with FKE
# Experimental: as §1, §2, §3
# TNF-α = TNF-α secretion by LPS-activated U937-derived human macrophages, supernatant ELISA; assay type: cell-based; conditions: peptide 1-1000 μM 24 hrs, then LPS 100 ng/ml 24 hours; FKE effect at low concentrations (1-10 μM); others compared with FKE
# Experimental: as §3
# [1] = test system: bovine mammary gland epithelial lined cells (BMEC); conditions: reported by Komine et al.; BMEC named for the bovine peptides; cited from earlier work
# [2] = LPS-stimulated macrophages (peptide 24 hrs, then LPS 100 ng/ml 24 hrs)
# [3] = Non-stimulated, 24 hrs, peptide at 1000 μM
# [4] = Non-stimulated, 48 hrs, peptide 0.1-1000 μM
# [5] = peptide at low concentrations (1-10 μM)
substance,measurement,setting,value
phenylalanine-lysine-aspartic acid [FKD],"TGF-β secretion, peptide concentration of maximal effect","TGF-β; LPS-stimulated, 24 hrs",10 µM
same,"TGF-β secretion, peptide concentration of maximal effect","TGF-β; Non-stimulated, 24 hrs",1 µM
same,"TGF-β secretion, peptide concentration of maximal effect","TGF-β; Non-stimulated, 48 hrs",10 µM
same,"IL-6 secretion, effect of peptide",IL-6; [2],increased; also recorded: Increase (all conc.)
same,"IL-6 secretion, effect of peptide",IL-6; [3],Increase (at
same,"IL-6 secretion, peptide concentration at which increase starts","IL-6; Non-stimulated, 48 hrs",at 0.1 μM)
same,"IL-6 secretion, effect of peptide",IL-6; [4],Increase
same,IL-6 secretion increase relative to FKE,"IL-6; Non-stimulated, 48 hrs, fold of FKE",4 fold
same,"IL-10 secretion, effect of peptide",IL-10; [2],decreased; also recorded: Decrease (max at
same,"IL-10 secretion, peptide concentration of maximal effect","IL-10; LPS-stimulated, 24 hrs",100 µM
same,"IL-10 secretion, effect of peptide","IL-10; Non-stimulated macrophages, 24 hrs incubation, peptide 0.1-1000 μM",Decrease (max at
same,"IL-10 secretion, peptide concentration of maximal effect","IL-10; Non-stimulated, 24 hrs",1 µM
same,"IL-10 secretion, peptide concentration of maximal effect","IL-10; Non-stimulated, 48 hrs",1000 µM
"Tyr-Lys-Glu (YKE) [synthetic tripeptide, from the corresponding position in murine lactoferrin]","IL-6 secretion, effect of peptide (Example 2, FIG. 4C)",IL-6,reproduced these effects
same,"IL-10 secretion, effect of peptide (Example 2, FIG. 4A)",IL-10,did not affect
same,"TNF-α secretion, effect of peptide (Example 2, FIG. 4D)",TNF-α,better inhibition
FKECH,"TGF-β secretion, effect of peptide (Example 2, FIG. 4B)",TGF-β,less active than FKE
same,"IL-6 secretion, effect of peptide (Example 2, FIG. 4C)",IL-6,less active than FKE
same,"IL-10 secretion, effect of peptide (Example 2, FIG. 4A)",IL-10,less active than FKE
same,"TNF-α secretion, effect of peptide (Example 2, FIG. 4D)",TNF-α,pronounced activity in inhibiting
Glu-Lys-Phe [EKF],"TGF-β secretion, effect of peptide (Example 2, FIG. 4B)",TGF-β,did not reproduce these effects
same,"IL-6 secretion, effect of peptide (Example 2, FIG. 4C)",IL-6,did not reproduce these effects
same,"IL-10 secretion, effect of peptide (Example 2, FIG. 4A)",IL-10,did not reproduce these effects
same,"TNF-α secretion, effect of peptide (Example 2, FIG. 4D)",TNF-α,moderate inhibition
Phe-Lys-Glu (FKE),"TGF-β secretion, peptide concentration of maximal effect","TGF-β; LPS-stimulated, 24 hrs",100 µM
same,"TGF-β secretion, effect of peptide","TGF-β; Non-stimulated macrophages, 24 hrs incubation, peptide 0.1-1000 μM, significant if ±30% of control",No effect
same,"TGF-β secretion, peptide concentration of maximal effect","TGF-β; Non-stimulated, 48 hrs",10 µM
same,"TGF-β secretion, effect of peptide (Example 2, FIG. 4B)",TGF-β,inhibits
same,"TGF-β secretion, effect of peptide (Example 1)",TGF-β; [5],inhibits
same,"IL-6 secretion, effect of peptide",IL-6; [2],No Increase
same,"IL-6 secretion, effect of peptide",IL-6; [3],Increase (at
same,"IL-6 secretion, peptide concentration at which increase starts","IL-6; Non-stimulated, 48 hrs",at 0.1 μM)
same,"IL-6 secretion, effect of peptide",IL-6; [4],Increase (starts
same,"IL-6 secretion, effect of peptide (Example 2, FIG. 4C)",IL-6,inhibits
same,"IL-10 secretion, effect of peptide",IL-10; [2],increased
same,"IL-10 secretion, peptide concentration of maximal effect","IL-10; LPS-stimulated, 24 hrs",1 µM
same,"IL-10 secretion, peptide concentration of maximal effect","IL-10; Non-stimulated, 24 hrs",10 µM
same,"IL-10 secretion, peptide concentration of maximal effect","IL-10; Non-stimulated, 48 hrs",0.1 µM
same,"IL-10 secretion, effect of peptide (Example 2, FIG. 4A)",IL-10,induces
same,"IL-10 secretion, effect of peptide (Example 1)",IL-10; [5],induces
same,"TNF-α secretion, effect of peptide (Example 2, FIG. 4D)",TNF-α,inhibits
"GQKDLLFKDSAI [positions 295-307 of human lactoferrin, Komine et al]","induction of pro-inflammatory cytokines and chemokines (TNF-α, IL-6, IL-8 and MCP-1)",[1],induction
"GQRDLFKDSAL [bovine counterpart of pep4, Komine et al]","induction of pro-inflammatory cytokines and chemokines (TNF-α, IL-6, IL-8 and MCP-1)",[1],induced
"FKECHLA [known bovine lactoferrin-derived synthetic peptide, excluded from Formula I]","induction of pro-inflammatory cytokines and chemokines (TNF-α, IL-6, IL-8 and MCP-1)",[1],inactive
same,"IL-6 secretion, effect of peptide (Example 2, FIG. 4C)",IL-6,reproduced the effects
same,"TNF-α secretion, effect of peptide (Example 2, FIG. 4D)",TNF-α,reproduced the effects
"FKDCHLA [positions 243-249 of human lactoferrin, Komine et al]","induction of pro-inflammatory cytokines and chemokines (TNF-α, IL-6, IL-8 and MCP-1)",[1],induction
